Patent US20240024403A1, “Compositions and Methods for Managing Weight” (Unigen, Inc., priority 2012, published 2024)

Test: High fat diet induced obesity (DIO) mouse model
Type: in vivo, C57CL/6J mice
Settings: for NSAH (sum): liver pathology; for Total Body Weight: DIO mice (Table 52); for Total Body Weight / Body Weight: in g (unit assumed)
Description: C57CL/6J mice aged 4-6 weeks (Korea Research Institute of Bioscience & Biotechnology, Ohchang, Korea) were housed in Polycarbonate cages (five mice per cage) in a room with a 12 hr:12 hr light-dark cycle and an ambient temperature of 24° C. All the mice were fed a commercial chow diet for 1 week after arrival in the animal facility. Mice were then divided into normal and obesity groups and fed with normal diet (ND) and high fat diets (HFD) respectively. The HFD group was divided into multiple treatment groups: a high fat diet vehicle group (HFD), an orlistat (purchased as OTC drug Alli®) positive control treatment group (ORI, 40 mg/kg of animal weight, 2 times/day) and optionally a sibutramine positive control treatment group (10 mg/kg, 1 time/day). The HFD contained 340 g of fat/kg of HFD (310 g lard plus 30 g soybean oil; Harlan Laboratories, USA). The HFD was formulated to provide 60% of the total energy generated by the diet from fat by replacing carbohydrate energy with lard and soybean oil, whereas the normal diet (ND) group was fed a diet providing only 18% of the total diet energy from fat(Harlan Laboratories, USA).
Body weight was measured once each week and feed intake was measured twice per week. At the end of the experimental period, following a 12 hr. fasting period, the animals were anesthetized with ether, and blood was drawn from the abdominal vein. Liver and kidney and adipose tissues (epididymal, retroperitoneal, perirenal adipose tissues) were removed from each animal, rinsed with physiological saline, and weighed. Serum concentrations of glucose, total cholesterol, triglycerides, and LDL-cholesterol were determined using automatic analyzer (INTEGRA 400, Roche, Germany). Statistical significance of test results was measured using the Student's t-test.

[1] = DIO mice blood biochemistry, SIB 10 mg/kg, ORI 40 mg/kg, Mutamba extract 32 (G1) 1000 mg/kg, mean
[2] = DIO mice blood biochemistry, SIB 10 mg/kg, ORI 40 mg/kg, Mutamba extract 33-2 G1 1000 mg/kg, mean
[3] = DIO mice liver pathology score, SIB 10 mg/kg, ORI 40 mg/kg, Mutamba extract 32 (G1) 1000 mg/kg, mean
[4] = DIO mice, SIB 10 mg/kg, ORI 40 mg/kg, Mutamba extract 32 (G1) 1000 mg/kg, mean
[5] = DIO mice, SIB 10 mg/kg, ORI 40 mg/kg, Mutamba extract 33-2 G1 1000 mg/kg, mean
[6] = DIO mice, combination (1:1) 2000 mg/kg twice a day, group mean
[7] = liver pathology score, mice fed a high fat diet, Mutamba fractions 250 mg/kg oral 2 times per day, mean
[8] = liver pathology score, mice fed a high fat diet, Mutamba fractions 250 mg/kg oral 2 times per day, mean (table printed twice)
[9] = mice fed a high fat diet, Mutamba fractions 250 mg/kg oral 2 times per day, mean
[10] = sibutramine 10 mg/kg, 1 time/day
[11] = sibutramine 10 mg/kg, 1 time/day, listed as Sibutramine
[12] = week 1, mice fed a high fat diet, Mutamba fractions 250 mg/kg oral 2 times per day, mean
[13] = week 2, mice fed a high fat diet, Mutamba fractions 250 mg/kg oral 2 times per day, mean
[14] = week 3, mice fed a high fat diet, Mutamba fractions 250 mg/kg oral 2 times per day, mean
[15] = week 4, mice fed a high fat diet, Mutamba fractions 250 mg/kg oral 2 times per day, mean
[16] = week 5, mice fed a high fat diet, Mutamba fractions 250 mg/kg oral 2 times per day, mean
[17] = week 6, mice fed a high fat diet, Mutamba fractions 250 mg/kg oral 2 times per day, mean
[18] = week 7, mice fed a high fat diet, Mutamba fractions 250 mg/kg oral 2 times per day, mean
[19] = week 8, mice fed a high fat diet, Mutamba fractions 250 mg/kg oral 2 times per day, mean

Compound: CC(C)CC(N(C)C)C1(c2ccc(Cl)cc2)CCC1 (stereo not shown) [SIB, sibutramine]
- ALT [1]: 37.00 U/L
- AST [1]: 65.95 U/L
- HDL-C [1]: 68.73 mg/dL
- LDL-C [1]: 6.18 mg/dL
- T-chol [1]: 155.75 mg/dL
- TG [1]: 49.75 mg/dL
- LDL-C [2]: 5.26 mg/dL
- T-chol [2]: 158.60 mg/dL
- TG [2]: 46.60 mg/dL
- Hepatocellular ballooning (0-2) [3]: 0.25
- Lobular Inflammation (0-3) [3]: 0.50
- Steatosis (0-3) [3]: 0.50
- NASH (sum) (DIO mice liver pathology, sum of scores, SIB 10 mg/kg, ORI 40 mg/kg, Mutamba extract 32 (G1) 1000 mg/kg, mean): 1.25
- Weight Gain 2-week (DIO mice, 2-week, Compositions 1, 2 1300 mg/kg/day, 3, 9 1700 mg/kg/day, orlistat 40 mg/kg 2 times/day, sibutramine 10 mg/kg 1 time/day): −1.40
- Average Feed Intake 2-week (DIO mice, 2-week, doses as in Example 76): 2.87
- Food Efficiency Ratio (FER) 2 weeks (DIO mice, 2 weeks, Mean, Weight Gain (g/day)/Feed Intake (g/day)): −0.099
- Weight Gain 7-week (DIO mice, 7-week, Compositions 1, 2 1300 mg/kg/day, 3, 9 1700 mg/kg/day, orlistat 40 mg/kg 2 times/day, sibutramine 10 mg/kg 1 time/day): 6.12
- Average Feed Intake 7-week (DIO mice, 7-week, doses as in Example 76): 2.67
- Food Efficiency Ratio (FER) 7 weeks (DIO mice, 7 weeks, Mean, Weight Gain (g/day)/Feed Intake (g/day)): 0.054
- Food Efficiency Ratio (FER) (DIO mice, FER = body weight gain (g/day)/food intake (g/day), SIB 10 mg/kg, ORI 40 mg/kg, Mutamba extract 32 (G1) 1000 mg/kg, mean): 0.008
- Food Efficiency Ratio (FER) (DIO mice, FER = body weight gain (g/day)/food intake (g/day), SIB 10 mg/kg, ORI 40 mg/kg, Mutamba extract 33-2 G1 1000 mg/kg, mean): 0.043
- Average Body Weight Gain [4]: 0.021 g/day
- Average Food Intake [4]: 2.724 g/day
- Body Weight Gain [5]: 0.114 g/day
- Food Intake [5]: 2.624 g/day
- FER (Food efficiency ratio) (DIO mice, combination (1:1) 2000 mg/kg twice a day, FER = body weight gain/food intake): −0.014
- Food Intake [6]: 3.564 g/day
- Weight Gain [6]: -0.051 g/day
- Hepatocellular ballooning (0-2) [7]: 0.40
- Lobular Inflammation (0-3) [7]: 1.60
- Steatosis (0-3) [7]: 1.20
- Hepatocellular ballooning (0-2) [8]: 0.40
- Lobular Inflammation (0-3) [8]: 1.60
- Steatosis (0-3) [8]: 1.20
- NSAH (sum) (sum of scores, mice fed a high fat diet, Mutamba fractions 250 mg/kg oral 2 times per day, mean): 3.20
- NSAH (sum) (sum of scores, mice fed a high fat diet, Mutamba fractions 250 mg/kg oral 2 times per day, mean (table printed twice)): 3.20
- FER (Food efficiency ratio) (mice fed a high fat diet, FER = body weight gain (g/day)/food intake (g/day), Mutamba fractions 250 mg/kg oral 2 times per day, mean): 0.043
- Body Weight Gain [9]: 0.114 g/day
- Food Intake [9]: 2.624 g/day
- blood biochemistry parameters vs HFD group [10]: statistically significant decrease in LDL-cholesterol
- body weight gain vs HFD group [10]: statistically significant decreases in body weight gain across all weeks of the study
- liver pathology (NASH score) vs HFD group [10]: statistically significant decreases in Steatosis, Lobular inflammation, Hepatocellular ballooning and NASH score
- total body weight vs HFD group [10]: statistically significant decreases in total body weight from week 1, 2, 3 and 7
- weight gain per day, food intake per day, food efficiency ratio (FER) vs HFD group [10]: average body weight gain per day and food efficiency ratio (FER) endpoints were significantly lowered
- body weight gain vs HFD group [11]: did not
- weight gain per day, food intake per day, food efficiency ratio (FER) vs HFD group [11]: statistically significant reduction of average food intake after 7 weeks of treatment
- weight gain per day, food intake per day, food efficiency ratio (FER) vs HFD group (sibutramine 10 mg/kg, 1 time/day, listed as sibutramine): not statistically significant
- Total Body Weight (week 0, SIB 10 mg/kg): 39.70
- Body Weight (week 0, mice fed a high fat diet, Mutamba fractions 250 mg/kg oral 2 times per day, mean): 38.41
- Body Weight Gain (week 1, DIO mice, SIB 10 mg/kg, ORI 40 mg/kg, Mutamba extract 32 (G1) 1000 mg/kg/day oral, mean): −5.46
- Body Weight Gain (week 1, DIO mice, SIB 10 mg/kg, ORI 40 mg/kg, Mutamba extract 33-2 G1 1000 mg/kg, mean): −2.72
- Weight Gain (week 1, DIO mice, combination (1:1) 2000 mg/kg twice a day, group mean): −3.63
- Weight Gain (week 1, DIO mice, combination (10:1) 1100 mg/kg twice a day, group mean): −3.63
- Total Body Weight (week 1, SIB 10 mg/kg): 34.24
- Body Weight Gain [12]: −2.72
- Body Weight [12]: 35.69
- Body Weight Gain (week 2, DIO mice, SIB 10 mg/kg, ORI 40 mg/kg, Mutamba extract 32 (G1) 1000 mg/kg/day oral, mean): −4.84
- Body Weight Gain (week 2, DIO mice, SIB 10 mg/kg, ORI 40 mg/kg, Mutamba extract 33-2 G1 1000 mg/kg, mean): −2.39
- Weight Gain (week 2, DIO mice, combination (1:1) 2000 mg/kg twice a day, group mean): −5.37
- Weight Gain (week 2, DIO mice, combination (10:1) 1100 mg/kg twice a day, group mean): −5.37
- Total Body Weight (week 2, SIB 10 mg/kg): 33.96
- Body Weight Gain [13]: −2.39
- Body Weight [13]: 36.03
- Body Weight Gain (week 3, DIO mice, SIB 10 mg/kg, ORI 40 mg/kg, Mutamba extract 32 (G1) 1000 mg/kg/day oral, mean): −2.75
- Body Weight Gain (week 3, DIO mice, SIB 10 mg/kg, ORI 40 mg/kg, Mutamba extract 33-2 G1 1000 mg/kg, mean): −0.39
- Weight Gain (week 3, DIO mice, combination (1:1) 2000 mg/kg twice a day, group mean): −4.69
- Weight Gain (week 3, DIO mice, combination (10:1) 1100 mg/kg twice a day, group mean): −4.69
- Total Body Weight (week 3, SIB 10 mg/kg): 36.05
- Body Weight Gain [14]: −0.39
- Body Weight [14]: 38.02
- Body Weight Gain (week 4, DIO mice, SIB 10 mg/kg, ORI 40 mg/kg, Mutamba extract 32 (G1) 1000 mg/kg/day oral, mean): −2.17
- Body Weight Gain (week 4, DIO mice, SIB 10 mg/kg, ORI 40 mg/kg, Mutamba extract 33-2 G1 1000 mg/kg, mean): 1.47
- Weight Gain (week 4, DIO mice, combination (1:1) 2000 mg/kg twice a day, group mean): −4.82
- Weight Gain (week 4, DIO mice, combination (10:1) 1100 mg/kg twice a day, group mean): −4.82
- Total Body Weight (week 4, SIB 10 mg/kg): 36.64
- Body Weight Gain [15]: 1.47
- Body Weight [15]: 39.89
- Body Weight Gain (week 5, DIO mice, SIB 10 mg/kg, ORI 40 mg/kg, Mutamba extract 32 (G1) 1000 mg/kg/day oral, mean): −1.38
- Body Weight Gain (week 5, DIO mice, SIB 10 mg/kg, ORI 40 mg/kg, Mutamba extract 33-2 G1 1000 mg/kg, mean): 2.54
- Weight Gain (week 5, DIO mice, combination (1:1) 2000 mg/kg twice a day, group mean): −4.25
- Weight Gain (week 5, DIO mice, combination (10:1) 1100 mg/kg twice a day, group mean): −4.25
- Total Body Weight (week 5, SIB 10 mg/kg): 37.42
- Body Weight Gain [16]: 2.54
- Body Weight [16]: 40.95
- Body Weight Gain (week 6, DIO mice, SIB 10 mg/kg, ORI 40 mg/kg, Mutamba extract 32 (G1) 1000 mg/kg/day oral, mean): −0.27
- Body Weight Gain (week 6, DIO mice, SIB 10 mg/kg, ORI 40 mg/kg, Mutamba extract 33-2 G1 1000 mg/kg, mean): 3.99
- Weight Gain (week 6, DIO mice, combination (1:1) 2000 mg/kg twice a day, group mean): −3.90
- Weight Gain (week 6, DIO mice, combination (10:1) 1100 mg/kg twice a day, group mean): −3.90
- Total Body Weight (week 6, SIB 10 mg/kg): 38.54
- Body Weight Gain [17]: 3.99
- Body Weight [17]: 42.40
- Body Weight Gain (week 7, DIO mice, SIB 10 mg/kg, ORI 40 mg/kg, Mutamba extract 32 (G1) 1000 mg/kg/day oral, mean): −0.06
- Body Weight Gain (week 7, DIO mice, SIB 10 mg/kg, ORI 40 mg/kg, Mutamba extract 33-2 G1 1000 mg/kg, mean): 5.15
- Weight Gain (week 7, DIO mice, combination (1:1) 2000 mg/kg twice a day, group mean): −2.27
- Weight Gain (week 7, DIO mice, combination (10:1) 1100 mg/kg twice a day, group mean): −2.27
- Total Body Weight (week 7, SIB 10 mg/kg): 38.74
- Body Weight Gain [18]: 5.15
- Body Weight [18]: 43.57
- Body Weight Gain (week 8, DIO mice, SIB 10 mg/kg, ORI 40 mg/kg, Mutamba extract 32 (G1) 1000 mg/kg/day oral, mean): 1.15
- Body Weight Gain (week 8, DIO mice, SIB 10 mg/kg, ORI 40 mg/kg, Mutamba extract 33-2 G1 1000 mg/kg, mean): 6.27
- Total Body Weight (week 8, SIB 10 mg/kg): 39.95
- Body Weight Gain [19]: 6.27
- Body Weight [19]: 44.69
